Several values for one entry are separate records, joined by “and”; a condition that tells them apart may be missing. Equal values may be shown once.
Columns and labels:
[1] = test system: T1, UGT enzymes of human liver microsomes; experiment: Kinetic and Ki studies of inhibitors of 7-HFC glucuronidation in human liver microsomes; format: biochemical; details: 7-HFC 20-500 μM
T1 construct: percentage of control metabolism, 7-HFC glucuronidation; percentage of control metabolism, 7-HFC glucuronidation

[2] = test system: UGT enzymes of human liver microsomes; experiment: Inhibition of raloxifene glucuronidation (G1, G2) in human liver microsomes; format: biochemical
Description: Compounds were eluted using a binary solvent gradient system. […] Solvent B was methanol. […] Detection was at 280 nm.

[3] = target: T2, UGT enzymes of human liver microsomes (Homo sapiens, UniProt P16662); experiment: Inhibition of zidovudine glucuronidation in human liver microsomes; format: biochemical; details: liver lot 062101
T2 construct: residual metabolism (percentage of control), zidovudine glucuronidation; other: liver lot 062101; residual metabolism (percentage of control), zidovudine glucuronidation; residual metabolism (percentage of control)
T2 sequence (P16662 1-529): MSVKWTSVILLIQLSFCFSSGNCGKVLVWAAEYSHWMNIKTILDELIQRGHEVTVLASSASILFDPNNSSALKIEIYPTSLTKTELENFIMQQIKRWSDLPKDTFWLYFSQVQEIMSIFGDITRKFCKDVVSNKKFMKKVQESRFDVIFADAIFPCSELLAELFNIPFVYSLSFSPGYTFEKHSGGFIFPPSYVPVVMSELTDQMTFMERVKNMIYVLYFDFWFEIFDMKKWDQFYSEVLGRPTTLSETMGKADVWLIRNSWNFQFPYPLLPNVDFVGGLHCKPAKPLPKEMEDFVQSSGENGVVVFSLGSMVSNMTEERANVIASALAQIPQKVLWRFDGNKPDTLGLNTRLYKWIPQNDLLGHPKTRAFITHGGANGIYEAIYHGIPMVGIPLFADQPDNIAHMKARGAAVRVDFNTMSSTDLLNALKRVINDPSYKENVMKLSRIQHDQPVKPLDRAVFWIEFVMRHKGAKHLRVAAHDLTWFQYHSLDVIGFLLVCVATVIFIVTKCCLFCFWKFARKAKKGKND
Experimental: Compounds were eluted using a binary solvent gradient system where solvent A was dilute phosphoric acid (pH 3) and solvent B was acetonitrile.
Standardized incubations utilized 500 μM zidovudine substrate, 1 mg/ml microsomal protein, 5 mM UDPGA and a 30 min incubation time. […] Int.

[4] = test system: T3, UGT enzymes of human liver microsomes; experiment: Inhibition of labetalol glucuronidation (LG1, LG2) in human liver microsomes; format: biochemical; details: labetalol 50 μM
T3 construct: residual metabolism (percentage of control), labetalol LG1; other: labetalol 50 μM; residual metabolism (percentage of control), labetalol LG1; residual metabolism (percentage of control), labetalol LG2; inhi

[5] = test system: UGT enzymes of pooled human jejunum microsomes; experiment: Inhibition of 2ME2 glucuronidation (MG1) in pooled human jejunum microsomes; format: biochemical; details: jejunum HJ61, 2ME2 50 μM
Description: Compounds were eluted using a binary solvent gradient system where solvent A was dilute phosphoric acid (pH 3) and solvent B was 80:20 acetonitrile-methanol. […] Detection was at 280 nm.

UGT1A9 = target: T4, UGT1A9 (Homo sapiens, UniProt O60656); experiment: Inhibition of raloxifene glucuronidation by recombinant UGT1A9 Supersomes; details: for Inhibition of raloxifene glucuronidation, UGT1A9, first line per inhibitor (G1): first line (G1, metabolite not given); for Inhibition of raloxifene glucuronidation, UGT1A9, first line per inhibitor (G1) / Inhibition of raloxifene glucuronidation, UGT1A9, second line per inhibitor (G2): raloxifene 50 μM, 250 μg/ml Supersomes, 1 mM UDPGA, 15 min; for activity at 15 min, 5 µM / activity at 15 min, 10 µM / activity at 15 min, 25 µM / activity at 15 min, 50 µM: human, Supersomes with recombinant human UGT1A9, pH 7.5, probe raloxifene 50 μM; for Inhibition of raloxifene glucuronidation, UGT1A9, second line per inhibitor (G2): second line (G2, metabolite not given)
T4 sequence (O60656 26-530): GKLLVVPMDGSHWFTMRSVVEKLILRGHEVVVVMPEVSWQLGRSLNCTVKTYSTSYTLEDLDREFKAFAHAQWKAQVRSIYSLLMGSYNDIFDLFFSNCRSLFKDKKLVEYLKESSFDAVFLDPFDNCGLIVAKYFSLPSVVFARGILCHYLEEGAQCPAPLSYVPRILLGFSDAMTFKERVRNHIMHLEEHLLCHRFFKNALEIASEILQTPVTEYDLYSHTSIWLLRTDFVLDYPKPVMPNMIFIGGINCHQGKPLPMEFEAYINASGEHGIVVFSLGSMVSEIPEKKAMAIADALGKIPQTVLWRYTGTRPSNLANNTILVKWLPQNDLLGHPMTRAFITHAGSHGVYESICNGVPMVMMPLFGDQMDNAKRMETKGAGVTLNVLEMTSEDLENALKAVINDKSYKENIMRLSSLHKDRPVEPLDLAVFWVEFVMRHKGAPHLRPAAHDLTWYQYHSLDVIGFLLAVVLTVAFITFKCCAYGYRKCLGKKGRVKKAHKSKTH

[6] = liver lot 032101, inhibitor 10 μM
[7] = liver lot 062101, inhibitor 10 μM
[8] = liver lot 083000, inhibitor 10 μM
[9] = raloxifene 50 μM, inhibitor 10 μM
[10] = raloxifene 50 μM, inhibitor 25 μM
[11] = raloxifene 50 μM, inhibitor 50 μM
[12] = raloxifene 50 μM, inhibitor 100 μM

Compound: O=C(OC[C@H]1O[C@@H](OC(=O)c2cc(O)c(O)c(OC(=O)c3cc(O)c(O)c(O)c3)c2)[C@H](OC(=O)c2cc(O)c(O)c(OC(=O)c3cc(O)c(O)c(O)c3)c2)[C@@H](OC(=O)c2cc(O)c(O)c(OC(=O)c3cc(O)c(O)c(O)c3)c2)[C@@H]1OC(=O)c1cc(O)c(O)c(OC(=O)c2cc(O)c(O)c(O)c2)c1)c1cc(O)c(O)c(OC(=O)c2cc(O)c(O)c(O)c2)c1 [Tannic acid]
- Vmax of 7-HFC glucuronidation (fit of the experiment with this inhibitor) [1]: 57 ± 3 nmol/min/mg
- Km ([1]; read-out: Km of 7-HFC glucuronidation (fit of the experiment with this inhibitor)): 85 ± 7 µM
- % of control metabolism, raloxifene G1 [2, 6]: 51 (4) %
- % of control metabolism, raloxifene G2 [2, 6]: 59 (3) %
- % of control metabolism, raloxifene G1 [2, 7]: 61 (4) %
- % of control metabolism, raloxifene G2 [2, 7]: 54 (4) %
- % of control metabolism, raloxifene G1 [2, 8]: 27 (1) %
- % of control metabolism, raloxifene G2 [2, 8]: 30 (1) %
- % of control metabolism, raloxifene G1 [2, 9]: 27 (1) %
- % of control metabolism, raloxifene G2 [2, 9]: 30 (1) %
- % of control metabolism, raloxifene G1 [2, 10]: 7 (1) %
- % of control metabolism, raloxifene G2 [2, 10]: 12 (2) %
- % of control metabolism, raloxifene G1 [2, 11]: 0 (0), 0 (0) %
- % of control metabolism, raloxifene G2 [2, 11]: 0 (0), 0 (0) %
- % of control metabolism, raloxifene G1 [2, 12]: 0 (0), 0 (0) %
- % of control metabolism, raloxifene G2 [2, 12]: 0 (0), 0 (0) %
- residual metabolism (percentage of control), zidovudine glucuronidation ([3]; inhibitor 50 μM): 54 (2) % and 50 (4) %
- residual metabolism (percentage of control), zidovudine glucuronidation ([3]; inhibitor 100 μM): 42 (2) % and 37 (4) %
- residual metabolism (percentage of control), zidovudine glucuronidation ([3]; inhibitor 200 μM): 20 (2) %
- residual metabolism (percentage of control), labetalol LG1 ([4]; inhibitor 50 μM): 42 (1) %
- residual metabolism (percentage of control), labetalol LG2 ([4]; inhibitor 50 μM): 37 (2) %
- residual metabolism (percentage of control), labetalol LG1 ([4]; inhibitor 100 μM): 19 (1) % and 21 (1) %
- residual metabolism (percentage of control), labetalol LG2 ([4]; inhibitor 100 μM): 9 (0) % and 13 (3) %
- residual metabolism (% of control), 2ME2 MG1 ([5]; inhibitor 2 μM): 63 (1) %
- residual metabolism (% of control), 2ME2 MG1 ([5]; inhibitor 5 μM): 49 (1) %
- residual metabolism (% of control), 2ME2 MG1 ([5]; inhibitor 10 μM): 42 (1) %
- residual metabolism (% of control), 2ME2 MG1 ([5]; inhibitor 25 μM): 5 (0) %
- residual metabolism (% of control), 2ME2 MG1 ([5]; inhibitor 50 μM): <LOQ
- Inhibition of raloxifene glucuronidation, UGT1A9, first line per inhibitor (G1) (UGT1A9; inhibitor 5 μM): 53 (2)
- Inhibition of raloxifene glucuronidation, UGT1A9, first line per inhibitor (G1) (UGT1A9; inhibitor 50 μM): 17 (0)
- activity at 15 min, 5 µM (UGT1A9; formation of glucuronide G1, % of control metabolism, raloxifene G1, UGT1A9, inhibitor 5 μM): 53%
- activity at 15 min, 10 µM (UGT1A9; formation of glucuronide G1, % of control metabolism, raloxifene G1, UGT1A9, inhibitor 10 μM): 44%
- activity at 15 min, 25 µM (UGT1A9; formation of glucuronide G1, % of control metabolism, raloxifene G1, UGT1A9, inhibitor 25 μM): 21%
- activity at 15 min, 50 µM (UGT1A9; formation of glucuronide G1, % of control metabolism, raloxifene G1, UGT1A9, inhibitor 50 μM): 17%
- activity at 15 min, 5 µM (UGT1A9; formation of glucuronide G2, % of control metabolism, raloxifene G2, UGT1A9, inhibitor 5 μM): 76%
- activity at 15 min, 10 µM (UGT1A9; formation of glucuronide G2, % of control metabolism, raloxifene G2, UGT1A9, inhibitor 10 μM): 45%
- activity at 15 min, 25 µM (UGT1A9; formation of glucuronide G2, % of control metabolism, raloxifene G2, UGT1A9, inhibitor 25 μM): 19%
- activity at 15 min, 50 µM (UGT1A9; formation of glucuronide G2, % of control metabolism, raloxifene G2, UGT1A9, inhibitor 50 μM): 42%
- Inhibition of raloxifene glucuronidation, UGT1A9, second line per inhibitor (G2) (UGT1A9; inhibitor 5 μM): 76 (3)
- Inhibition of raloxifene glucuronidation, UGT1A9, second line per inhibitor (G2) (UGT1A9; inhibitor 10 μM): 45 (1)
- Inhibition of raloxifene glucuronidation, UGT1A9, second line per inhibitor (G2) (UGT1A9; inhibitor 25 μM): 19 (3)
- Inhibition of raloxifene glucuronidation, UGT1A9, second line per inhibitor (G2) (UGT1A9; inhibitor 50 μM): 42 (5)
